Measured values published in patent US20050113459A1, “Compositions for diabetes” (priority 2002, published 2005).

Tests used:
rats = conditions: daily dose of 1,200 mg/Kg for 52 weeks; cited from earlier work
[1] = tested on: model GK rats having Type II diabetes; assay: Glucose tolerance test in model GK rats having Type II diabetes fed coenzyme Q10 feedstuff; format: in vivo, rat
Description: (§1) The improvement effects of the reduced coenzyme Q10 and the oxidized coenzyme Q10 on the glucose tolerance were examined using model GK rats (5 weeks old, male) having Type II diabetes. The rats were fed ad libitum with a powdered feedstuff containing 0.1 percent by weight of the reduced coenzyme Q10 (containing 2 percent by weight of the oxidized coenzyme Q10) or a feedstuff containing 0.1 percent by weight of the oxidized coenzyme Q10. In order to avoid the reduced coenzyme Q10 in the feedstuff mixture from decreasing due to oxidation, the feedstuff was completely replaced with a new one every two days. The control group was fed with a powdered feedstuff free of coenzyme Q10. The glucose tolerance test was conducted four weeks and six weeks after the feeding of the feedstuff mixture was started (n=4 in each group). In the glucose tolerance test, a 50% glucose solution was orally administered at a dose of 4 ml/kg, and the blood glucose level was measured before the administration and 30 minutes, 60 minutes, 90 minutes, and 120 minutes after the administration. The blood glucose level in blood collected from the tail vein was determined with a simple blood glucose meter.

GK rats = assay: Blood glycosylated hemoglobin (hemoglobin A1c) level of GK rats fed for 12 weeks; format: in vivo, rat; conditions: GK rats fed for 12 weeks with 0.1 wt% in feedstuff
Description: as §1
The blood glycosylated hemoglobin (hemoglobin Alc) level of GK rats fed for 12 weeks was measured as in EXAMPLE 1. […]

[2] = 0.1 wt% in feedstuff, after six weeks of administration
[3] = after four weeks and six weeks of administration

COC1=C(OC)C(=O)C(C/C=C(\C)CC/C=C(\C)CC/C=C(\C)CC/C=C(\C)CC/C=C(\C)CC/C=C(\C)CC/C=C(\C)CC/C=C(\C)CC/C=C(\C)CCC=C(C)C)=C(C)C1=O [coenzyme Q10]
toxic effects in chronic toxicity test (rats): no toxic effects

COC1=C(OC)C(=O)C(C/C=C(\C)CC/C=C(\C)CC/C=C(\C)CC/C=C(\C)CC/C=C(\C)CC/C=C(\C)CC/C=C(\C)CC/C=C(\C)CC/C=C(\C)CCC=C(C)C)=C(C)C1=O [oxidized coenzyme Q10, reference compound]
increase in blood glucose level 30 minutes after the glucose load, in comparison with the control group ([1]; 0.1 wt% in feedstuff, after four weeks of administration, oral glucose load): significantly inhibited | glucose tolerance in comparison with that after four weeks [1, 2]: further improvements | blood glucose level from about an hour after the glucose load, in comparison with the control group [1, 3]: no large difference | Hemoglobin A1c level (GK rats): 4.93 ± 0.42%

COc1c(O)c(C)c(C/C=C(\C)CC/C=C(\C)CC/C=C(\C)CC/C=C(\C)CC/C=C(\C)CC/C=C(\C)CC/C=C(\C)CC/C=C(\C)CC/C=C(\C)CCC=C(C)C)c(O)c1OC [reduced coenzyme Q10]
blood glucose level in comparison with the oxidized coenzyme Q10 group ([1]; 0.1 wt% in feedstuff, after four weeks of administration, all measurement times beginning with 30 minutes after the glucose load): sharply decreased | glucose tolerance in comparison with that after four weeks [1, 2]: improved to a greater extent | blood glucose level ([1]; 0.1 wt% in feedstuff, after six weeks of administration, all measurement points of glucose tolerance test): ≤ 200 mg/dL | increase in blood glucose level after glucose load ([1]; 0.1 wt% in feedstuff, after six weeks of administration, all measurement times): strongly inhibited | blood glucose level 30 minutes after the peak, versus control group [1, 3]: significantly lower | Hemoglobin A1c level (GK rats): 4.17 ± 0.15%
